Assay results reported in ChEMBL document CHEMBL1132397, “Synthesis of 5,8-dimethoxy-3-hydroxy-4-quinolone, a reported inhibitor of HIV RT, and evidence the original proposed structure was incorrect” (Bioorg Med Chem Lett, 1999).
Blank lines part the entries; values can stand above or below the compound they belong to.

Assays:
[1] = molecular target: T1, Human immunodeficiency virus type 1 reverse transcriptase (Human immunodeficiency virus 1, UniProt Q72547); assay: Inhibitory activity against reverse transcriptase of HIV-1
[2] = molecular target: T1, Human immunodeficiency virus type 1 reverse transcriptase; assay: Inhibitory activity against reverse transcriptase of HIV; Inactive
[3] = molecular target: Human immunodeficiency virus type 1 protease (Human immunodeficiency virus 1, UniProt Q72874); assay: Inhibition of RNA-dependent DNA polymerase activity against wild-type HIV-1 RT at a concentration of 100 uM; No inhibition

Ki [1]: 490 nM
Compound: Oc1cnc2c(O)ccc(O)c2c1O

Compound: COc1cnc2c(OC)ccc(OC)c2c1O
Ki [2]: Not Active

Compound: COc1ccc(OC)c2c(O)c(O)cnc12
Ki [3]: Not Active
